According to paper PMC6934184, “Selective DNA-PKcs inhibition extends the therapeutic index of localized radiotherapy and chemotherapy” (The Journal of Clinical Investigation, 2019):

Target: T1, CDK2/cyclin A (Homo sapiens, UniProt P24941)
T1 construct: purchased Thermo Fisher Scientific (Life Technologies) SelectScreen
Experiment: SelectScreen Z'LYTE
Assay type: biochemical
In short: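 NU5455 was profiled across the SelectScreen Broad panel of kinase activity and binding assays. Z'LYTE reactions such as CSF1R ran at apparent Km ATP, while the Adapta CAMK1 assay used ATP listed as 10. Values are given as percent.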

CN(C(=O)CN1CCOCC1)c1ccc2sc3c(-c4cccc5c(=O)cc(N6CC7CCC(C6)O7)oc45)cccc3c2c1 [NU5455]
inhibition at 1 µM: 2.7%
